Patent US10066272B2, “Human homeobox gene ventx and macrophage terminal differentiation and activation, compositions and methods thereof” (priority 2011, dated 2018)

Legend:
[1] = tested on: macrophages; assay: Macrophage classical activation after siRNA transfection, surface markers by flow cytometry; type: cell-based, human; settings: transfected macrophages
Description: (§1) Macrophages were generated through incubation of freshly isolated monocytes with 100 ng/mL M-CSF for 4 days. These macrophages were then transfected with siGFP or siVentX, respectively, and further cultured in RPMI 1640 medium for additional 3 days. Thereafter, cells were exposed to 1 μg/mL LPS plus 20 ng/mL γ-IFN for 6 hours. (A) Surface staining of CD40, CD80, CD86 and HLA-DR and intracellular staining of TNF-α and IL1-β were analyzed by flow cytometry. (B) Secreted TNF-α, IL1-β and IL12p70 from culture supernatants were determined with ELISA kits. (C) Reactive oxygen species (ROS) from siGFP or siVentX transfected macrophages were analyzed with fluorescence microscope (left) and flow cytometry (middle). […] (D) Nitrate level from siGFP and siVentX transfected macrophages. Data represent mean+SD of three different experiments. (E) Phagocytosis of siGFP and siVentX transfected macrophage. Red histogram represents transfection with siGFP; green histogram represents transfection with siVentX. Left panel: cells were incubated on ice; right panel: cells were incubated at 37° C. (F) Effects of VentX knockdown on mixed lymphocyte reaction. […]
(A) Effects VentX over-expression on the expression of LPS and IFN-γ pathways components. […] No significant binding of VentX to the promoter regions of STAT1 and JunB was detected by the ChIP assay. […]

[2] = tested on: macrophages; assay: Secreted pro-inflammatory cytokines from macrophage culture supernatants (ELISA); type: cell-based, human; settings: transfected macrophages, TNF-α, IL1-β and IL12p70 by ELISA (FIG. 8B)
Description: as §1
Levels of IL-1β and TNF-α and IL12p70 in the supernatants of E. coli LPS (Sigma) and IFN-γ (PeproTech) treated macrophage or LPS treated U937 cells were quantified using ELISA kits obtained from eBiosciences. […]

siVentX: VentX siRNA, forward 5′-UUCAGAAUCGCCGCAUGAAACACAAACGG-3′ (SEQ ID NO:4), reverse SEQ ID NO:5 (antisense CCGUUUGUGUUUCAUGCGGCGAUUCUGAA; listed as RNA, chemistry not given here)
surface expression of CD40, CD80 and CD86 ([1]; LPS plus IFN-γ, HLA-DR not affected (FIG. 8A)): significantly down-regulated
surface expression of CD119 (IFN-γ receptor 1), CD14 and TLR4 ([1]; flow cytometry (FIG. 9C)): significantly diminished
pro-inflammatory cytokine secretion [2]: significant reduction
